ChEMBL document CHEMBL1800066 (J Med Chem, 2011)
Calls of active or inactive are those of the source. The rule behind the calls is not given here.

Assays:
[1] = molecular target: T1, Hepatocyte growth factor receptor (Homo sapiens, UniProt P08581); assay: Inhibition of c-MET overexpressed in human GTL-16 cells assessed as phosphorylation at C-terminal Y1234 after 2 hrs by Western blot analysis; assay type: cell-based
[2] = Half life in dog at 1 mg/kg, iv; assay type: ADME, organism-based, Canis lupus familiaris; set-up: dose 1 mg/kg, route intravenous; details: in vivo
[3] = molecular target: Voltage-gated inwardly rectifying potassium channel KCNH2 (Homo sapiens, UniProt Q12809); assay: Inhibition of Kv11.1 channel
[4] = molecular target: T1, Hepatocyte growth factor receptor; assay: Inhibition of recombinant human c-MET phosphorylation at C-terminal Y1234
[5] = molecular target: T1, Hepatocyte growth factor receptor; assay: Inhibition of recombinant human c-MET phosphorylation at C-terminal Y1235
[6] = Plasma clearance in rat at 2 mg/kg, iv and 5 mg/kg, po; assay type: ADME, organism-based
[7] = tested on: Mus musculus; assay: Inhibition of c-Met phosphorylation at Y1365 in human GTL16 cells xenografted in CD1 nu/nu mouse at 10 to 100 mg/kg, po BID measured after 4 hrs by immunostaining assay; assay type: functional, organism-based
[8] = Plasma clearance in monkey at 0.25 mg/kg, iv; assay type: ADME, organism-based, Macaca mulatta; set-up: dose 0.25 mg/kg, route intravenous; details: rhesus monkey
[9] = AUC (0 to infinity) in rat at 2 mg/kg, iv; assay type: ADME, organism-based; set-up: time infinity, dose 2 mg/kg, route intravenous; details: plasma
[10] = molecular target: High affinity nerve growth factor receptor (Homo sapiens, UniProt P04629); assay: Inhibition of human TrkA
[11] = Half life in rat at 2 mg/kg, iv and 5 mg/kg, po; assay type: ADME, organism-based; details: in vivo
[12] = Oral bioavailability in rat at 5 mg/kg; assay type: ADME, organism-based; details: in vivo
[13] = molecular target: Hepatocyte growth factor receptor (Homo sapiens, UniProt P08581, Y1230H)
[14] = Tmax in dog at 2 mg/kg, po; assay type: ADME, organism-based, Canis lupus familiaris; set-up: dose 2 mg/kg, route oral; details: in vivo
[15] = molecular target: T1, Hepatocyte growth factor receptor; assay: Binding affinity to human recombinant His6-tagged unphosphorylated c-Met cytosolic domain
[16] = molecular target: T1, Hepatocyte growth factor receptor
[17] = Tmax in rat at 5 mg/kg, po; assay type: ADME, organism-based; set-up: dose 5 mg/kg, route oral; details: in vivo
[18] = Lipophilicity, log P of the compound; assay type: physicochemical; details: octanol/water
[19] = molecular target: Hepatocyte growth factor receptor (Homo sapiens, UniProt P08581, N1100Y)
[20] = molecular target: T1, Hepatocyte growth factor receptor; assay: Inhibition of c-MET overexpressed in human GTL-16 cells assessed as phosphorylation at C-terminal Y1365 after 2 hrs by Western blot analysis; assay type: cell-based
[21] = AUC (0 to infinity) in monkey at 0.5 mg/kg, po; assay type: ADME, organism-based, Macaca mulatta; set-up: time infinity, dose 0.5 mg/kg, route oral; details: rhesus monkey, plasma
[22] = Volume of distribution at steady state in dog at 1 mg/kg, iv; assay type: ADME, organism-based, Canis lupus familiaris; set-up: dose 1 mg/kg, route intravenous; details: in vivo, read-out: Vdss
[23] = Cmax in dog at 2 mg/kg, po; assay type: ADME, organism-based, Canis lupus familiaris; set-up: dose 2 mg/kg, route oral; details: in vivo
[24] = molecular target: Fibroblast growth factor receptor 3 (Homo sapiens, UniProt P22607); assay: Inhibition of human FGFR3
[25] = molecular target: T1, Hepatocyte growth factor receptor; assay: Inhibition of c-MET overexpressed in human GTL-16 cells assessed as phosphorylation at C-terminal Y1349 after 2 hrs by Western blot analysis; assay type: cell-based

Q: For `CN(C[C@@H]1COCCO1)S(=O)(=O)Nc1ccc2ccc3ncc(-c4cnn(C)c4)cc3c(=O)c2c1` [MK-2461], which IC50 [1] is on record?
A: The IC50 was over 2500 nM.

Q: And the half-life [2]?
A: Its half-life is 2.9 h.

Q: And the IC50 [3]?
A: Its IC50 is over 30000 nM.

Q: And the IC50 [4]?
A: Its IC50 is 900 nM.

Q: What about the IC50 [5] of the same molecule?
A: Its IC50 is 900 nM.

Q: What about the clearance [6] of the same molecule?
A: The clearance was 9.1 mL/min/kg.

Q: What about the inhibition [7] of the same molecule?
A: The inhibition was “Active”.

Q: And the clearance [8]?
A: Its clearance is 8.4 mL/min/kg.

Q: And the AUC(0-inf) [9]?
A: The AUC(0-inf) was 7.6 µM·h.

Q: And the IC50 [10]?
A: Its IC50 is 46 nM.

Q: And the half-life [11]?
A: The half-life was 0.8 h.

Q: And the bioavailability [12]?
A: The bioavailability was 62%.

Q: What about the IC50 [13] of the same molecule?
A: Its IC50 is 1 nM.

Q: And the Tmax [14]?
A: Its Tmax is 1.4 h.

Q: And the Kd [15]?
A: The Kd was 25 nM.

Q: And the IC50 [16]?
A: The IC50 was 2 nM.

Q: And the Tmax [17]?
A: The Tmax was 0.7 h.

Q: What about the logP [18] of the same molecule?
A: The logP was 2.7.

Q: And the IC50 [19]?
A: The IC50 was 1.5 nM.

Q: What about the IC50 [20] of the same molecule?
A: The IC50 was 50 nM.

Q: And the AUC(0-inf) [21]?
A: The AUC(0-inf) was 0.4 µM·h.

Q: And the Vd [22]?
A: The Vd was 1.1 L/kg.

Q: And the Cmax [23]?
A: The Cmax was 2500 nM.

Q: And the IC50 [24]?
A: The IC50 was 50 nM.

Q: And the IC50 [25]?
A: Its IC50 is 56 nM.
